# Laboratory results published in paper PMC3790770 (PLoS ONE, 2013).
# Biological target: T1, maltose binding protein (MBP) (Escherichia coli, UniProt P0AEX9)
# T1 construct: resulting in an ampicillin-resistant plasmid that expresses cytoplasmic, full-length MBP; made in house
# Assay: Titration monitored by tryptophan fluorescence peak wavelength
# Settings: sucrose up to ∼[…] without maltose and ∼0.9 M with maltose, 37 °C, pH 7.2
# Procedure: Experiments were performed on a Cary 300 Fluorimeter using 200 nM MBP in 100 mM sodium phosphate buffer (pH 7.2) at 37 °C. […] Crowder titrations were conducted with multiple samples, as addition of crowding agent to concentrations reaching 300 g/L was not feasible in the same sample without large volume and MBP concentration changes.
# Data were analyzed using two different models: a two-state binding model (Figure 2A), and a three-state competitive binding model (Scheme 1).
# Now, [P] represented the sum of the two ligand-free species, i.e., the free protein P and the protein-crowder complex.
structure (smiles),measurement,value
OC[C@H]1O[C@@](CO)(O[C@H]2O[C@H](CO)[C@@H](O)[C@H](O)[C@H]2O)[C@@H](O)[C@@H]1O [sucrose],binding to MBP (sucrose titration),no apparent 1∶1 binding to MBP
